Laboratory results reported in PubChem BioAssay (NCI).
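Step 1: Grow cells in 96-well plates. Step 2: Expose to compound for 48 hours at 5 concentrations. Step 3: Interpolate endpoints linearly; if unreached, use highest concentration. GI50 = concentration required for 50% inhibition of growth. TGI is the concentration that stops growth completely.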

What was measured:
Experiment in all cases: NCI-60 cell line screen, 48 h
NCI-H460 lung = test system: NCI-H460 lung
SN12C renal = test system: SN12C renal
NCI-H522 lung = test system: NCI-H522 lung
786-0 renal = test system: 786-0 renal
HT29 colon = test system: HT29 colon
SW-620 colon = test system: SW-620 colon
NCI-H23 lung = test system: NCI-H23 lung
HOP-62 NSCLC = test system: HOP-62 NSCLC
MCF7 breast = test system: MCF7 breast
HCT-15 colon = test system: HCT-15 colon
SK-MEL-28 melanoma = test system: SK-MEL-28 melanoma
COLO 205 colon = test system: COLO 205 colon
HCT-116 colon = test system: HCT-116 colon
CCRF-CEM leukemia = test system: CCRF-CEM leukemia

Structure (SMILES)	TGI (NCI-H460 lung)	TGI (SN12C renal)	TGI (NCI-H522 lung)	TGI (786-0 renal)	TGI (HT29 colon)	TGI (SW-620 colon)	TGI (NCI-H23 lung)	TGI (HOP-62 NSCLC)	TGI (MCF7 breast)	TGI (HCT-15 colon)	TGI (SK-MEL-28 melanoma)	TGI (COLO 205 colon)	TGI (HCT-116 colon)	TGI (CCRF-CEM leukemia)	GI50 (NCI-H460 lung)	GI50 (SN12C renal)	GI50 (SW-620 colon)	GI50 (NCI-H23 lung)	GI50 (HCT-15 colon)	GI50 (SK-MEL-28 melanoma)
NS(=O)(=O)c1nc(S(=O)(=O)O)c2[nH]cnc2n1	> 100 µM	> 100 µM	> 100 µM	> 100 µM	> 100 µM	> 100 µM	> 100 µM	> 100 µM	> 100 µM	> 100 µM	> 100 µM	> 100 µM	> 100 µM							
O=C(CCN1CCOCC1)/C(=C/c1ccccc1)c1ccccc1	23.1 µM	14.5 µM	3.84 µM		17.6 µM	6.9 µM	14.1 µM	45.8 µM	18.8 µM	5.98 µM	20.3 µM	14.3 µM	12.3 µM							
O=P1(N2CCOCC2)OCCO1	> 100 µM	> 100 µM	> 100 µM	> 100 µM	> 100 µM	> 100 µM	> 100 µM		> 100 µM	> 100 µM	> 100 µM	> 100 µM	> 100 µM	> 100 µM						
COC(C/C(=C/CO[Si](C(C)C)(C(C)C)C(C)C)C(=O)N(COCC[Si](C)(C)C)c1ccccc1I)OC	> 100 µM	> 100 µM		> 100 µM	> 100 µM	> 100 µM	79.5 µM	> 100 µM		> 100 µM	50 µM	> 100 µM	46.2 µM	> 100 µM						
Cc1nc2cc(F)c(F)cc2[nH]c1=O	> 100 µM	> 100 µM		> 100 µM	> 100 µM	> 100 µM	> 100 µM	> 100 µM	> 100 µM	> 100 µM	> 100 µM	> 100 µM	> 100 µM	> 100 µM						
O=c1c2cc(C(F)(F)F)ccc2sc2c(NCCCNCCO)nc3ccccc3c12	2.57 µM	3.12 µM				2.98 µM	3.02 µM			2.77 µM	3.32 µM				1.22 µM	1.64 µM	1.54 µM	1.58 µM	1.32 µM	1.87 µM
O=C(O)CCC(=O)OCN1C(=O)C2C3C=CC(C2C1=O)C1C2C(=O)N(COC(=O)CCC(=O)O)C(=O)C2C31 (stereo not drawn)	> 54.5 µM	> 100 µM	> 85.8 µM	> 100 µM	> 100 µM	> 68.4 µM	> 100 µM	> 100 µM		> 57 µM	> 100 µM	> 100 µM	> 54.3 µM	> 81.1 µM						
O=c1c2c([nH]c3nccn13)CCC2	> 10 µM	> 10 µM		> 10 µM	> 10 µM	> 10 µM	> 10 µM	> 10 µM	> 10 µM	> 10 µM	> 10 µM	> 10 µM	> 10 µM	> 10 µM						
CC1CC/C(=C\c2ccc(F)cc2)C2=C1C(c1ccc(F)cc1)N1C(=O)CSC1=N2 (stereo not drawn)	> 100 µM	> 100 µM		> 100 µM	> 100 µM	> 100 µM	> 100 µM		> 100 µM	> 100 µM	> 100 µM	> 100 µM	> 100 µM	> 100 µM						
C/C=C(\C)C(=O)OC1CC(OC(C)=O)C2(C(=O)OC)COC3C2C1(C)C1C2(C(=O)OC)OCC1(C3O)C1(O)C3CC(C4(O)C=COC4O3)C1(C)O2 (stereo not drawn)	> 100 µM	> 100 µM	> 100 µM	> 100 µM	> 100 µM	> 100 µM	> 100 µM	> 100 µM	> 100 µM	> 100 µM	> 100 µM	> 100 µM	> 100 µM							
N#Cc1nc2cc(Cl)ccc2nc1N1CCN(c2ccc([N+](=O)[O-])cc2)CC1	> 100 µM	> 100 µM		> 100 µM	> 100 µM	> 100 µM	> 100 µM	> 100 µM	> 100 µM	> 100 µM	> 100 µM	> 100 µM	> 100 µM							
CCc1cccc2c3c([nH]c12)-c1ccccc1NC(=O)C3	> 100 µM	> 100 µM		> 100 µM	> 100 µM	> 100 µM	> 100 µM	> 100 µM	> 100 µM	> 100 µM	> 100 µM	> 100 µM		> 100 µM						
O=C(COc1ccc(OCC(=O)N2C(=O)CC(=O)N(c3ccc(Cl)cc3)C2=S)cc1)N1C(=O)CC(=O)N(c2ccc(Cl)cc2)C1=S	> 100 µM	> 100 µM	53.8 µM	80.1 µM	> 100 µM	> 100 µM	> 100 µM		> 100 µM	> 100 µM	> 100 µM	38.5 µM	25.2 µM							
COc1ccc(C#Cn2nnc3ccccc32)cc1	> 100 µM	> 100 µM	> 100 µM	> 100 µM	> 100 µM	> 100 µM	> 100 µM	> 100 µM	> 100 µM	> 100 µM	> 100 µM	> 100 µM	> 100 µM							
Cc1cc2[nH]c3c(C#N)c(-c4ccccc4)c(N=Nc4ccc(F)cc4)c(=O)n3c2cc1C	> 100 µM	> 100 µM	> 100 µM	> 100 µM		> 100 µM	> 100 µM	> 100 µM	> 100 µM	> 100 µM	> 100 µM	> 100 µM	> 100 µM	> 100 µM						
CC(C)(C)C1CCC2c3c([nH]c4ccccc34)C3C(=O)N(c4ccc(C#N)cc4)C(=O)C3C2C1 (stereo not drawn)	17.1 µM	21.4 µM		33.7 µM	20.3 µM	39.7 µM	23.6 µM	31.2 µM	> 100 µM	26.2 µM	36.3 µM	> 100 µM	18 µM							
Cc1cc(C)c2c(c1)CC1(Cc3cc(C)c(C)cc3C1=O)C2=O (stereo not drawn)	> 100 µM	> 100 µM	> 100 µM	> 100 µM		> 100 µM			> 100 µM	> 100 µM	> 100 µM	> 100 µM		> 100 µM						
C1=NCCNCCNCCN=Cc2ccc(cc2)OCc2cccc(n2)COc2ccc1cc2	> 100 µM	> 100 µM		> 100 µM	> 100 µM	> 100 µM	> 100 µM	> 100 µM	> 100 µM	> 100 µM	> 100 µM	> 100 µM	> 100 µM	> 100 µM						
Cc1ccc(S(=O)(=O)NC(=O)NC(Cc2ccc(O)cc2)C(=O)O)cc1 (stereo not drawn)	> 100 µM	> 100 µM	> 100 µM	> 100 µM	> 100 µM	> 100 µM	> 100 µM	> 100 µM		> 100 µM	> 100 µM	> 100 µM	> 100 µM	> 100 µM						
CCOC(=O)c1ccc(Nc2nc3ccccc3nc2-c2cccs2)cc1	> 100 µM	99.3 µM	80.7 µM	> 100 µM			> 100 µM	> 100 µM	> 100 µM	> 100 µM	> 100 µM	> 100 µM	> 100 µM	> 100 µM						
CNc1nnc(CCCCCCCCc2nnc(NC)o2)o1	> 100 µM	> 100 µM		47 µM	90.8 µM	> 100 µM	> 100 µM	78 µM	38.3 µM	> 100 µM	> 100 µM	> 100 µM	41.9 µM	43 µM						
C#C[C@]1(O)CC[C@H]2[C@@H]3CCC4=C/C(=N/NC(=O)c5cccc6c(=O)c7ccccc7[nH]c56)CCC4[C@H]3CC[C@@]21C (stereo partly drawn)		> 100 µM	86 µM	> 100 µM	> 100 µM	> 100 µM	> 100 µM	> 100 µM	> 100 µM	> 100 µM		> 100 µM	> 100 µM	> 100 µM						
COC(=O)[C@@H]1CS(=O)(=O)C(C(C)C)N1C(C)=O (stereo partly drawn)	> 100 µM	> 100 µM	> 100 µM	> 100 µM	> 100 µM	> 100 µM	> 100 µM	> 100 µM	> 100 µM	> 100 µM	> 100 µM	> 100 µM	> 100 µM							
O=C1NC(=O)c2ccccc2/C1=C/c1ccc2c(c1)OCO2		47.1 µM	> 100 µM	> 100 µM	44.8 µM	> 100 µM	46.8 µM	28.7 µM	> 100 µM	31.8 µM			22.5 µM	> 100 µM						
COc1ccc(C2C3=C(N=C4SC(C(C)=O)=C(C)N42)c2ccccc2CC3)cc1 (stereo not drawn)		> 100 µM		> 100 µM	> 100 µM	> 100 µM	> 100 µM	> 100 µM	> 100 µM	> 100 µM	> 100 µM	> 100 µM	> 100 µM	> 100 µM						
COc1ccccc1-n1c(=O)n(C)c(=O)n1C(C)(C)C	> 100 µM	> 100 µM	> 100 µM	> 100 µM	> 100 µM	> 100 µM	> 100 µM		> 100 µM	> 100 µM	> 100 µM	> 100 µM	> 100 µM	> 100 µM						
CN(Cc1cnc2nc(N)nc(N)c2n1)c1ccc(C(=O)NC23CC4CC(CC(C4)C2)C3)cc1	18.6 µM	56.8 µM		57.1 µM		> 100 µM	22.3 µM	28.2 µM	23.6 µM	16.6 µM		24 µM	> 100 µM	52 µM						
